From patent US20110190306A1, “Inhibitors of PLK” (CHROMA THERAPEUTICS LTD., priority 2008, published 2011) come the findings set out here.

The subject of the assay is HCT 116 cell line. The assay is described as follows: Cell inhibition assay (WST-1 proliferation), HCT-116. The format is cell-based. The settings on record: Homo sapiens, 72 hrs incubation, read-out: Inhibitor Activity vs HCT 116 cell line. On the procedure:
Cells were seeded in 96W tissue culture plates (1 well=30 mm^2) in 50 μl of the appropriate culture medium (see below). Seeding densities were cell-line dependent: HCT-116=1000 cells per well, Hut-78=2250 cells per well, U937 cells=2000 cells per well. 24 hrs later 50 μL of the compound prepared in the same medium was added as 4 fold dilutions to give final concentrations in the range 0.15 nM-2500 nM (n=6 for each concentration). The plates were then incubated at 37° C., 5% CO2 for 72 hrs. Cell proliferation was assessed using WST-1 (a metabolic indicator dye, Roche Cat no. 1 644 807) according to the manufacturers instructions. The results were calculated as percentage of vehicle response and IC50 values represent the concentration of compound that inhibited the vehicle response by 50%.
HCT-116 Culture Medium—Dulbeccos MEM (Sigma D6546) plus 10% heat inactivated fetal calf serum (Hyclone SH30071 Thermo Fischer Scientific) containing 2 mM Glutamine (Sigma cat no G-7513) and 50 U/mL Penicillin and Streptomycin Sulphate (Sigma Cat no P-0781).

Consider `CC[C@@H]1C(=O)N(C)c2cnc(Nc3ccc(C(=O)NC4CCN(CC[C@](C)(N)C(=O)OC)CC4)cc3OC)nc2N1C1CCCC1` [Example 1, Methyl 4-{4-[(4-{[(7R)-8-cyclopentyl-7-ethyl-5-methyl-6-oxo-5,6,7,8-tetrahydropteridin-2-yl]amino}-3-methoxybenzoyl)amino]piperidin-1-yl}isovalinate], for which the IC50 fell in the range of 100 to 500 nM.
